# Test results from patent US20130143942A1, “METHODS OF CONTROLLING NEONICOTINOID RESISTANT APHIDS” (SYNGENTA CROP PROTECTION LLC, priority 2010, published 2013).
# Tests used:
# [1] = system: neonicotinoid insecticide resistant aphid strain; test: leaf disc spray bioassay, aphid mortality 72 hours after treatment, resistant strain; assay type: in vivo; conditions: mixed age aphids on chinese cabbage leaf discs, sprayed in Potter Tower, resistant strain collected from peach orchard, Avignon region, 2009
# Experimental: (§1) The following bioassay methodology was utilized to generate the data included in the table:
# (§2) 5 cm leaf discs were taken from fully expanded chinese cabbage leaves and placed with the underside facing upwards onto water agar in 5 cm Petri dishes. The leaf discs are infested with between 30 and 40 mixed age aphids 24 hours prior to insecticide treatment. The leaf surface is sprayed with the appropriate test solutions in a Burkhard Potter Tower at an approximate water volume of 450 l/ha. Test containers are stored at 21° C., 60% RH and 16:8 light/dark. Aphids were assessed for mortality 72 hours after treatment.
# [2] = system: neonicotinoid insecticide susceptible strain 4106A; test: leaf disc spray bioassay, aphid mortality 72 hours after treatment, susceptible strain; assay type: in vivo; conditions: mixed age aphids on chinese cabbage leaf discs, sprayed in Potter Tower, susceptible strain 4106A (Rothamsted Research)
# Experimental: as §1, §2
structure (smiles),measurement,setting,value
"CCOC(=O)OC1=C(c2cc(C)ccc2C)C(=O)N[C@]12CC[C@@H](OC)CC2 [sprirotetramat, cis-3-(2,5-dimethylphenyl)-8-methoxy-2-oxo-1-azaspiro[4.5]dec-3-en-4-yl ethyl carbonate]","LC50 with 95% confidence limit, resistant strain",[1],1.58 (1.14-2.23) ppm
same,"LC50 with 95% confidence limit, susceptible strain",[2],0.88 (0.60-1.22) ppm
